One experiment concerns the target α3β4 nAChR (Rattus norvegicus, UniProt P04757+P12392). Nature of the experiment: two-electrode voltage clamp, Xenopus oocytes, peak current. It counts as cell-based. In general terms: In two-electrode clamp one electrode senses voltage and the other passes current.
The target of another experiment is α3β2 nAChR (Rattus norvegicus, UniProt P04757+P12390). The description is as above. It counts as cell-based.

Usually EC50 stands for the concentration needed to bring the measured effect to its halfway point. Read a low EC50 as a more potent agent.

α3β2 nAChR, sequence (P04757 26-499): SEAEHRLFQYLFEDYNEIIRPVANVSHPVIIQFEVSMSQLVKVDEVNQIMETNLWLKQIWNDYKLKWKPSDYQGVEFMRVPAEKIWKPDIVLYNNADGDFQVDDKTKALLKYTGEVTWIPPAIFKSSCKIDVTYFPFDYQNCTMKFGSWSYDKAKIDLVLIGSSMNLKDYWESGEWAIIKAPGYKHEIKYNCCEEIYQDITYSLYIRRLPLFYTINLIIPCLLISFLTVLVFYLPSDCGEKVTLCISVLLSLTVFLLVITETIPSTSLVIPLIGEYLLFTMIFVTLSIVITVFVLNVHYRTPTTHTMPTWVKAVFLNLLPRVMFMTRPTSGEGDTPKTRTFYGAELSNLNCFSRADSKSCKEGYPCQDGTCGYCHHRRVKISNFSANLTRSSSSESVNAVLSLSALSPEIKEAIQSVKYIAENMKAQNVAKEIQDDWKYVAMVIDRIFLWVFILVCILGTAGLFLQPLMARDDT
α3β2 nAChR, sequence (P12390 25-500): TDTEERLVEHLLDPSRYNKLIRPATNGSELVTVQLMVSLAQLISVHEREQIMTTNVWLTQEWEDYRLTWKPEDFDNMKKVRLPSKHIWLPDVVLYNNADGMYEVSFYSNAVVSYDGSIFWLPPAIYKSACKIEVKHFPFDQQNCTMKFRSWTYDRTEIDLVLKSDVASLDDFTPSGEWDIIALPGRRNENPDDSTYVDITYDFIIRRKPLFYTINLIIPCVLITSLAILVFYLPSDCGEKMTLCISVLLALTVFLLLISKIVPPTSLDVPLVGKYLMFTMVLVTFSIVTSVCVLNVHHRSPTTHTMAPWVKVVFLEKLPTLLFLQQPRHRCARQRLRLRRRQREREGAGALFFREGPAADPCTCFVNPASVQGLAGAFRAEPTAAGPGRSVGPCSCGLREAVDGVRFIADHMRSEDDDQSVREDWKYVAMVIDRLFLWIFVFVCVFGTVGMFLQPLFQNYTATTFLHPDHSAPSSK
α3β4 nAChR, sequence (P04757 26-499): as the sequence (P04757 26-499) above
α3β4 nAChR, sequence (P12392 21-495): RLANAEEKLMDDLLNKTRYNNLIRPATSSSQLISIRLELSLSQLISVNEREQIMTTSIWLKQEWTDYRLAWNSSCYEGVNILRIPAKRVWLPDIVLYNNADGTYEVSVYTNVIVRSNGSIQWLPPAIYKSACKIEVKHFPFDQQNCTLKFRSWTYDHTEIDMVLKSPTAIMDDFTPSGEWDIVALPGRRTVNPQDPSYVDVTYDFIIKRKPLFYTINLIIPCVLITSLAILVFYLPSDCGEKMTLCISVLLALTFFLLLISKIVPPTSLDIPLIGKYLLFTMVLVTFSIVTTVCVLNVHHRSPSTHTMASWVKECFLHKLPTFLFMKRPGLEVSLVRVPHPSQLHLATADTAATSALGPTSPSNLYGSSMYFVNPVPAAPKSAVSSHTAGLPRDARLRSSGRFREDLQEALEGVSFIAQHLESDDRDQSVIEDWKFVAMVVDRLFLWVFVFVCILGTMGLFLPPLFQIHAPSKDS

As to `C[N+]1(C)CCN(c2ccccc2)CC1` [DMPP], the EC50 at α3β4 nAChR stood at 58 µM; at α3β2 nAChR, 55 µM.
